The text below walks through data of patent US5104659A, “Compositions, devices and method for controlling insects” (priority 1984, dated 1992).

In data set [1] the test system is Non-resistant strain (house flies). Kind of data set: Chamber screening evaluation of ear tags, % fly mortality, non-resistant strain. Format: in vivo. Conditions: positive control, petri dish 0.05%, 8640 min. On the procedure: (§1) The ear tags are hung in a chamber covered with mesh cloth to keep the flies confined in the 12"×17"×9" space. Each chamber contains a cup of water and a supply of sugar and powdered milk.
(§2) At the start of the test, ~100 three to five day old house flies are placed in each chamber. The chambers are kept in a room with the temperature at 82° F. (27.8° C.). The flies are observed daily (except Saturday and Sunday) and mortality is recorded. At the termination of the study, the chambers are placed in a freezer overnight to kill the remaining flies, which are then counted. The percent mortality is calculated based on the number of flies that die during the observation period and the number of flies counted at the end of the study.

The subject of data set [2] is Resistant strain (flucythrinate resistant house flies). Kind of data set: Chamber screening evaluation of ear tags, % fly mortality, resistant strain. Format: in vivo. Conditions: positive control, petri dish 0.05%, 8640 min. Here is the method:
as §1, §2

Data set [3] has as its system pyrethroid resistant female flies. Format: in vivo.
A short description of data set [4]: Stability of organophosphates by differential scanning calorimetry (DSC). Format: physicochemical. Conditions: for Onset of Decomposition: DSC; for decomposition points as determined by differential scanning calorimetry: below the 160° C. minimum temperatures encountered during extrusion or injection molding. Here is the method: The insect control devices of the present invention containing the insecticide in the coating composition may be prepared at much lower temperatures, as low as about 20° C. The greatly-reduced processing temperatures allow the incorporation of active ingredients which are thermally unstable at elevated temperature. Examples of insecticides which may now be incorporated in such devices are dimethoate, dibrom, and chlorfenvinphos, illustrated in Table I. The decomposition points of these insecticides, as determined by differential scanning calorimetry (DSC), is below the 160° C. minimum temperatures encountered during extrusion or injection molding of plasticized PVC, and as such, these compounds can now be effectively incorporated in the present devices for control insect pests.

The mark [5] stands for this setting: pyrethroid resistant female flies.

Like-named read-outs stand apart in the source and are kept apart here.

Turning to `CC(C)[C@H](C(=O)OC(C#N)c1cccc(Oc2ccccc2)c1)c1ccc(OC(F)F)cc1` (mixture of isomers) [flucythrinate, (±)-cyano(3-phenoxyphenyl)methyl (+)-4-(difluoromethoxy-α-(1-methyl-ethyl)benzeneacetate], the figures for the “% Fly mortality - six days” value in data set [1] and in data set [2] were 77% and 4%, respectively. For the compound `Cc1cc(Cl)ccc1N=CN(C)C` [Chlordimeform], the LD50 in data set [3] (setting [5]) is on record as > 8.0 Micrograms/pyrethroid resistan. As for `CCOP(=O)(OCC)OC(=CCl)c1ccc(Cl)cc1Cl` [Chlorfenvinphos, 2-Chloro-1-(2,4-dichlorophenyl)-vinyl diethyl phosphate], the LD50 in data set [3] (setting [5]) is 0.1869-0.2626 Micrograms/pyrethroid resistan. Moreover, in data set [4], the “Onset of Decomposition” value was determined as 157 °C and the “decomposition points as determined by differential scanning calorimetry” value is less than 160 °C. As to `CCOP(=S)(OCC)Oc1nc(Cl)c(Cl)cc1Cl` [Chlorpyrifos], in data set [3] (setting [5]), the LD50 is 0.3144-1.486 Micrograms/pyrethroid resistan.

For `CCOP(=S)(OCC)Oc1cc(C)nc(C(C)C)n1` [Diazinon], in data set [3] (in vivo), the LD50 is 4.0626-6.2101. As for `COP(=O)(OC)OC(Br)C(Cl)(Cl)Br` (centres unmarked) [Dibrom, 1,2-Dibromo-2,2-dichloroethyl dimethyl phosphate], in data set [4], the “Onset of Decomposition” value stood at 103 °C and the “decomposition points as determined by differential scanning calorimetry” value is less than 160 °C.

As for `COP(=S)(OC)Oc1ccc([N+](=O)[O-])cc1Cl` [Dicapthon], the LD50 in data set [3] (setting [5]) was 0.2649-0.6539 Micrograms/pyrethroid resistan. For `CNC(=O)CSP(=S)(OC)OC` [Dimethoate, O,O-dimethyl S-(N-methylcarbamoyl-methyl)phosphorodithioate], in data set [4], the “Onset of Decomposition” value stood at 105 °C and the “decomposition points as determined by differential scanning calorimetry” value is less than 160 °C. Turning to `O=S1OCC2C(CO1)C1(Cl)C(Cl)=C(Cl)C2(Cl)C1(Cl)Cl` (centres unmarked) [Endosulfan], in data set [3] (setting [5]), the LD50 was 0.3518-0.5009 Micrograms/pyrethroid resistan. Take `COP(=S)(OC)Oc1ccc(S(=O)(=O)N(C)C)cc1` [Famphur]: the LD50 in data set [3] (in vivo) is 0.1359-8.448. For the compound `CCOC(=O)CC(SP(=S)(OC)OC)C(=O)OCC` (centres unmarked) [Malathion], the LD50 in data set [3] (setting [5]) was 4.4757-6.9321 Micrograms/pyrethroid resistan.

As to `CNC(=O)ON=C(C)SC` [Methomyl], in data set [3] (setting [5]), the LD50 was 0.5027-0.6807 Micrograms/pyrethroid resistan. `CCCCOCCOCCOCc1cc2c(cc1CCC)OCO2` [Piperonyl butoxide]: in data set [3] (in vivo), the LD50 was 2.725-3.7726.

As for `COP(=S)(OC)Oc1ccc(Sc2ccc(OP(=S)(OC)OC)cc2)cc1` [Temephos], in data set [4], the “Onset of Decomposition” value came to 142 °C. Same read-out and setting: to `COP(=O)(OC)O/C(=C\Cl)c1cc(Cl)c(Cl)cc1Cl` [Tetrachlorvinphos] belongs 190 °C.
